Results from paper PMC10761119, “Phosphorylation-state dependent intraneuronal sorting of Aβ differentially impairs autophagy and the endo-lysosomal system” (Autophagy, 2023).

How the values were obtained:
primary cortical neurons [1] = experiment: Immunocytochemistry colocalization of internalized Aβ with vesicular markers (Mander's overlap coefficient); type: cell-based, mouse; details: Aβ 500 nM, 4 h, mean ± S.D., n = 6, N = 3; for Mander's overlap coefficient, R, with EEA1-positive vesicles: Aβ stained with 82E1
SH-SY5Y cells = experiment: Lysosomal acidification assay using LysoSensor-dextran; type: cell-based, human; details: Aβ 1 µM, within 24 h of incubation; ΔpH = pHfinal (t = 24 h) − pHinitial (control, t = 0 h); n = 12, N = 4
Protocol: Cells were cultured on coverslips and treated with Aβ variants (primary cortical neurons, DIV14–500 nM, 4 h; SH-SY5Y cells, D3–1 μM, 24 h) in presence of 50 µM LysoSensor-dextran probe (ThermoFisher Scientific, L7545) in cell culture media for the indicated time points. Cells were washed and stained as described before. For fluorescence analyses, cells were cultured and treated in a 96-well plate for the indicated time points, and washed thrice with PBS to remove the excess probe. Fluorescence intensity analysis of blue and green channel was done using a multiplate reader (Tecan Life Sciences, Switzerland). […] was computed from the fluorescence values measured at λEx 340 nm and λEm 450 nm (blue channel) and λEm 535 nm (green channel), respectively. Values were normalized to absorbance at 340 nm and protein content per well, and represented as change of LysoSensor acidification with respect to control cells (Figure 7B and S7C-D). pH values were computed by preparing a standard curve, wherein cells treated with 1 µM nigericin (Sigma Aldrich, N7143) and 1 µM monensin (Sigma Aldrich, M5273) were incubated with media of pH 4.5, 7.5 and 9.2. As independent controls, 100 nM bafilomycin A1 (Sigma Aldrich, 553210), 1 mM NH4Cl- and 10 µM rapamycin (Cayman Chemicals, 19438)-treated cells were also used as independent controls to validate the measurements. Change in LysoSensor pH (ΔpH) for Aβ treated cells was quantified using the formula ΔpH = pHfinal (control/Aβ, t = 24 h) − pHinitial (control, t = 0 h). Box plots (Figure 7C and S7E) depict the overall distribution of data, and each data point represents average values from an independent experiment; n = 12, N = 4.

primary cortical neurons [2] = experiment: Immunocytochemistry of surface associated and internalized Aβ; type: cell-based, mouse; details: Aβ 500 nM, 4 h; antibody 82E1; ~200 neurons, N = 4
primary cortical neurons [3] = experiment: Subcellular fractionation by differential centrifugation and Aβ ELISA; type: cell-based, mouse; details: Aβ 500 nM, 4 h; for Aβ levels in the isolated membrane fraction (16,100 g pellet): ELISA 82E1, n = 6, N = 3
Protocol: [Worded in the source for another cell line; used here, by the source, with some conditions changed.] SH-SY5Y cells seeded on D1, were treated with Aβ variants (1 μM) on D3 in DMEM/F-12 media without serum and antibiotics. Control treatment included treatment with equal volume of 10 mM NaOH solution used for preparing the Aβ stock solutions, in respective cell culture medium. SH-SY5Y cells, after 16 h of transient expression of the reporter constructs, were treated with different Aβ variants, autophagy modulator substrates and respective controls in DMEM/F-12, FCS^− PS^− media for the mentioned time points. After treatment, cells were washed twice with PBS and with 0.025% trypsin-EDTA in PBS to get rid of cell bound Aβ, followed by subsequent washings with PBS again. Cells were either collected by scraping using a cell-scraper or fixed with 4% PFA-PBS for 15 min at RT, for further immunocytochemistry experiments. Collected treatment media was centrifuged at 1000 g for 5 min, pellet discarded and supernatant frozen at −20°C until further usage.
Cells were collected by scraping and mechanically homogenized in hypotonic D buffer (10 mM Tris-HCl, pH 7.4, 10 mM NaCl, 0.1 mM EGTA, 25 mM glycerol 2-phosphate, 1 mM DTT) containing protease and phosphatase inhibitors by repeated suspension through a 23 G × 1” needle. Post-nuclear supernatant (PNS) was collected by centrifugation of the mechanically homogenized cellular material at 2,000 g for 5 min. The pellet was the nuclear material. […] The nuclear fraction was the supernatant collected after centrifugation at 16,100 g for 15 min. The PNS collected from the first step was centrifuged at 16,100 g for 60 min, and supernatant was used as the crude cytosolic fraction. The pellet contained the membrane materials, which were re-homogenized in hypotonic D buffer and again centrifuged at 16,100 g for 60 min. The supernatant was discarded, pellet was resuspended in STEN-lysis buffer (20 mM Tris-HCl, pH 7.5, 150 mM NaCl, 1 mM EDTA, 1 mM EGTA, 1% Triton X-100, 2.5 mM sodium pyrophosphate [Sigma Aldrich, P1835], 1 mM β-glycerophosphate [Sigma Aldrich, G9422]) containing protease and phosphatase inhibitors, and the membrane fraction was the supernatant collected after centrifugation at 16,100 g for 15 min. The crude cytosolic fraction was then further fractionated at 100,000 g for 70 min at 4°C under vacuum. The resultant supernatant was the soluble cytosolic fraction. The pellet was resuspended in STEN lysis buffer and centrifuged at 16,100 g for 15 min. The resultant supernanant represented the insoluble cytosolic fraction.
Wells were further tapped dry and incubated with 4G8-biotin/82E1-biotin detection antibodies (0.05–0.1 μg/well) at RT for 2 h followed by subsequent washing and incubation with streptavidin conjugated HRP complex (1:5000) for another 2 h. Wells were then washed thoroughly four times and filled with 100 µl of 3,3,5,5-tetramethylbenzidine substrate (TMB; ThermoFisher Scientific, N301) in each well and incubated at 25°C until sufficient blue color developed (time ranged from 2–15 min depending on the different capture antibodies used in the experiment). 100 µl of stop solution (4 M H2SO4) was added to each well. Absorbance values from each well were read at a Tecan plate reader at a wavelength of 450 nm and background measurement at 620 nm. Multiple readings were recorded for a single well and averaged. In each experiment, each sample was analyzed in technical duplicate/triplicate wells as indicated and average values from an independent experiment are presented (Figures 1E, 3G, SA-D and Table S2).

| Substance | Mander's overlap coefficient, R, with EEA1-positive vesicles (primary cortical neurons [1]) | Mander's overlap coefficient, R, with CTSD (primary cortical neurons [1]) | Mander's overlap coefficient, R, with LAMP2 (primary cortical neurons [1]) | Mander's overlap coefficient, R, with LC3-positive vesicles (primary cortical neurons [1]) | Mander's overlap coefficient, R, with RAB7-positive late endosomes (primary cortical neurons [1]) | Decrease in the pH (LysoSensor response, ΔpH) (SH-SY5Y cells) | Fluorescence intensities of Aβ signals in unpermeabilized and permeabilized cells (binding to neuronal membranes and intraneuronal accumulation) (primary cortical neurons [2]) | Aβ levels in the isolated membrane fraction (16,100 g pellet) (primary cortical neurons [3]) | Aβ levels in the 100,000 g pellet (insoluble cytosolic fraction) (primary cortical neurons [3]; ELISA, compared to npAβ and p-Ser26Aβ) | Aβ levels in the 100,000 g supernatant (soluble cytosolic fraction) (primary cortical neurons [3]; ELISA, compared to p-Ser26Aβ) | Aβ levels in the total cytosolic fraction (supernatant after 16,100 g spin) (primary cortical neurons [3]; ELISA, followed by p-Ser8Aβ and npAβ) |
| --- | --- | --- | --- | --- | --- | --- | --- | --- | --- | --- | --- |
| amyloid-β phosphorylated at serine residue 8 [p-Ser8Aβ] | 0.58 ± 0.18 | 0.30 ± 0.06 | 0.33 ± 0.08 | 0.64 ± 0.21 | 0.33 ± 0.05 | did not show any change | highest fluorescence intensities | highest levels | significantly higher | significantly lower | – |
| amyloid-β phosphorylated at serine residue 26 [p-Ser26Aβ] | 0.51 ± 0.14 | 0.65 ± 0.10 | 0.65 ± 0.13 | 0.52 ± 0.09 | 0.62 ± 0.15 | 0.17 ± 0.12 units | followed by p-Ser26Aβ | significantly lower | – | – | highest levels |
| non-phosphorylated amyloid-β [npAβ, reference compound] | 0.43 ± 0.15 | 0.47 ± 0.09 | 0.45 ± 0.12 | 0.47 ± 0.09 | 0.44 ± 0.10 | 0.13 ± 0.11 units | least | significantly lower | – | – | – |
